# Assays:
# human plasma polymerase [1] = assay: Elimination of plasma polymerase without purification (substance, then cysteamine); type: biochemical; details: one hour at room temperature, then 20 mM cysteamine; no purification
# Procedure: A) EDTA plasma from a healthy blood donor, B) FIV virus diluted in inactivated FCS (devoid of RT activity) or C) in Dulbeco minimal essential medium with 5% FCS were diluted 1:1 and incubated with indicated concentration of 5,5′-dithiobis-(2-nitrobensoic acid) for one hour at room temperature (20° C.). Each sample was then serially diluted in fourfold steps in conditioning buffer (B). Cysteamine to a final concentration of 20 mM was then added to all samples and the set was incubated for another hour at room temperature. The RT activity of each sample was then determined using Cavidi® HS kit Lenti RT. 15 μl of each sample was added to 135 μl reaction mixture giving a final cysteamine concentration in assay of 2 mM. The RT activity recovered at the three first dilutions corresponding to 7.5, 1.9 and 0.5 μl sample per RT assay was recalculated into percentage of a control incubated in absence of substance and plotted against the substance concentration, see FIG. 6.
# human plasma RT = assay: Selective destruction of endogenous RT activity in plasma, protocol I; type: biochemical; details: EDTA plasma with disrupted lymphocytes, 1 hour at room temperature
# Procedure: EDTA plasma with disrupted lymphocytes from a healthy blood donor and FIV diluted in inactivated foetal calf serum (totally devoid of plasma RT activity) were incubated for 1 hour at room temperature with indicated concentration of: A) 5,5′-dithiobis-(2-nitrobensoic acid), B) thimerosal. The samples were separated according to “Protocol for determination of retroviral RT from material which contains RT blocking antibodies”. The RT activities recovered were determined with an RT assay (Cavidi HS-kit Lenti RT).
# human plasma polymerase [2] = assay: Resurrection of plasma polymerase activity after treatment with cysteine-modifying agents; type: biochemical; details: for Conditions required to reactivate polymerase activity treated with the agent: 3 mM agent, then reactivating substances
# Procedure: A set of human plasma samples (60% plasma in water) was first incubated with 3 mM of indicated cysteine-modifying substance or water (as control) at room temperature for 1 hour. Serial dilutions of five potentially reactivating substances were then added and the samples were incubated for another hour. Each sample was finally diluted 1:20 and residual RT activity was determined with Cavidi® HS kit Lenti RT. The total reduction in substance concentration between sample incubation and RT assay was 200 times. The RT activities recovered were recalculated into percent of the activity of a control consisting of plasma incubated in absence of additions during both incubation steps.
# [3] = target: Recombinant wild type HIV 1 RT (Human immunodeficiency virus type 1 group M subtype B, UniProt P04585); details: in foetal calf serum, 60 minutes at 22° C.
# Procedure: (§1) Recombinant wild type HIV 1 RT (▪), Recombinant RT from a Nevirapine resistant HIV 1 mutant (Y181C) (⋄), Jaagsiekte virus (JSV) RT from a sheep lung cancer (▾), […] (FIV) RT (∘), Bovine Leukaemia virus (BLV) RT (♦) and Porcine Endogenous Retrovirus (PERV) RT (●)derived from cell culture were dilute in heat inactivated foetal calf serum. The different virus enzyme preparations and an EDTA plasma sample from a healthy blood donor (□) were incubated with indicated thimerosal concentration at room temperature (22° C.) for 60 minutes. All the samples were diluted 100 fold in an RT assay compatible buffer and the residual RT activity in each sample was then determined. Three RT assays, each adapted to the type of RT measured were used: HIV 1, JSV, and FIV RTs were measured with Cavidi® HS kit Lenti RT BLV RT with Cavidi® HS kit HTLV RT and PERV and human plasma RT with Cavidi® HS kit Mn^2+ RT.
# [4] = target: Jaagsiekte virus (JSV) RT (Sheep pulmonary adenomatosis virus, UniProt P31623); details: in foetal calf serum, 60 minutes at 22° C.
# Procedure: as §1
# [5] = target: Recombinant RT from a Nevirapine resistant HIV 1 mutant (Y181C) (Human immunodeficiency virus type 1 group M subtype B, UniProt P04585, Y768C); details: in foetal calf serum, 60 minutes at 22° C.
# Procedure: as §1
# FIV RT = details: in foetal calf serum, 60 minutes at 22° C.
# Procedure: as §1
# recombinant HIV 1 RT = target: T1, recombinant HIV 1 RT (Human immunodeficiency virus type 1 group M subtype B, UniProt P04585); assay: RT assay (Cavidi HS-kit Lenti RT) with added components, recombinant HIV 1 RT; type: biochemical; details: 2.5 10^-6 M final concentration in RT assay; 12 ng odT; 100% = no addition
# T1 construct: recombinant HIV 1 RT or FIV RT of cell culture origin was used as enzyme
# Procedure: (§2) The effect of addition of indicated components to RT reaction mixture devoid of primer (Cavidi HS-kit Lenti RT) was investigated. EDTA plasma from two healthy blood donors (1 μl/assay), recombinant HIV 1 RT or FIV RT of cell culture origin was used as enzyme.
# [6] = test system: FIV RT of cell culture origin; assay: RT assay (Cavidi HS-kit Lenti RT) with added components, FIV RT; type: biochemical; details: 2.5 10^-6 M final concentration in RT assay; 12 ng odT; 100% = no addition
# Procedure: as §2
# [7] = test system: unidentified RT activity from human plasma; assay: RT assay (Cavidi HS-kit Lenti RT) with added components, human plasma polymerase; type: biochemical; details: 2.5 10^-6 M final concentration in RT assay; 12 ng odT; 100% = no addition
# Procedure: as §2
# [8] = 3 mM destroying agent first, 1.1 mM DTT
# [9] = 3 mM destroying agent first, 1.1 mM MSA
# [10] = 3 mM destroying agent first, 3.3 mM DTT
# [11] = 3 mM destroying agent first, 3.3 mM MSA
# [12] = 3 mM destroying agent first, 10 mM DTT
# [13] = 3 mM destroying agent first, 10 mM MSA
# [14] = 3 mM destroying agent first, 30 mM DTT
# [15] = 3 mM destroying agent first, 30 mM MSA
# [16] = 3 mM destroying agent first, 30 mM cysteine
# [17] = 3 mM destroying agent first, 30 mM glutathione
# Jaagsiekte virus (JSV) RT, sequence (P31623 866-1446 limits assumed): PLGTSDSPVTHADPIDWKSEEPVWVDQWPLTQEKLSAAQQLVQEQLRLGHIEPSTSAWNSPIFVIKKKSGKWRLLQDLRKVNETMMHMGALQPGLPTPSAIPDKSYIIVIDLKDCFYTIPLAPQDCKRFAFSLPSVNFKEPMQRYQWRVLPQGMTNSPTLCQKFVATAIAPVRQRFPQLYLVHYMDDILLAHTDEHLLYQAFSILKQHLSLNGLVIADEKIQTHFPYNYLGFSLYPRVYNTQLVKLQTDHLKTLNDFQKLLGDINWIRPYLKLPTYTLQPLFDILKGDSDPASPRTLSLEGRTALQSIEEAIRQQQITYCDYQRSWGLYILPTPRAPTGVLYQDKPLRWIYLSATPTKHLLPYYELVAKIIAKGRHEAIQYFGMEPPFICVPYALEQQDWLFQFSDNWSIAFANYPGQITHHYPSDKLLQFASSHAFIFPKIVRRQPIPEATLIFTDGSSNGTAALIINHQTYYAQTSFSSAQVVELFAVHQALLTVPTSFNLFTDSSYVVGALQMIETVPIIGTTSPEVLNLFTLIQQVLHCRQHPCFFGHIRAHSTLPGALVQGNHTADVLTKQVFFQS
Compound,Concentration that totally eliminated the human plasma RT activity (human plasma RT),Conditions required to reactivate polymerase activity treated with the agent (human plasma polymerase [2]),Polymerase activity after second incubation with DTT (% of control) (human plasma polymerase [2]; [8]) [%],Polymerase activity after second incubation with MSA (% of control) (human plasma polymerase [2]; [9]) [%],Polymerase activity after second incubation with DTT (% of control) (human plasma polymerase [2]; [10]) [%],Polymerase activity after second incubation with MSA (% of control) (human plasma polymerase [2]; [11]) [%],Polymerase activity after second incubation with DTT (% of control) (human plasma polymerase [2]; [12]) [%],Polymerase activity after second incubation with MSA (% of control) (human plasma polymerase [2]; [13]) [%],Polymerase activity after second incubation with DTT (% of control) (human plasma polymerase [2]; [14]) [%],Polymerase activity after second incubation with MSA (% of control) (human plasma polymerase [2]; [15]) [%],Polymerase activity after second incubation with cysteine (% of control) (human plasma polymerase [2]; [16]) [%],Polymerase activity after second incubation with glutathione (% of control) (human plasma polymerase [2]; [17]) [%],"Activity of indicated enzyme in RT assay, HIV (recombinant HIV 1 RT) [%]","Activity of indicated enzyme in RT assay, FIV [6] [%]","Activity of indicated enzyme in RT assay, plasma 1 [7] [%]","Activity of indicated enzyme in RT assay, plasma 2 [7] [%]",also measured
"O=C(O)c1cc(SSc2ccc([N+](=O)[O-])c(C(=O)O)c2)ccc1[N+](=O)[O-] [5,5′-Dithiobis-(2-nitrobenzoic acid)]",above 0.4 mM,required strongly reductive low molecular weight thiols for activation,0,0,1,0,143,0,122,0,7,2,,,,,Concentration after which human plasma polymerase activity was eliminated (human plasma polymerase [1]): above 0.47 mM
C[CH2][Hg][S]c1ccccc1C(=O)[O-].[Na+] [Thimerosal],> 3 mM,quite easily reactivated,84,17,248,19,377,7.3,448,3.4,68,7,,,,,"Sensitivity of enzyme to thimerosal treatment [3]: totally resistant; Sensitivity of enzyme to thimerosal treatment [4]: totally resistant; Sensitivity of enzyme to thimerosal treatment [5]: most sensitive; Sensitivity of enzyme to thimerosal treatment (FIV RT): most sensitive; Polymerase activity after second incubation with cysteamine (% of control) (human plasma polymerase [2]; 3 mM destroying agent first, 1.1 mM cysteamine): 0%; Polymerase activity after second incubation with cysteine (% of control) (human plasma polymerase [2]; 3 mM destroying agent first, 1.1 mM cysteine): 4%; Polymerase activity after second incubation with glutathione (% of control) (human plasma polymerase [2]; 3 mM destroying agent first, 1.1 mM glutathione): 12%; Polymerase activity after second incubation with cysteamine (% of control) (human plasma polymerase [2]; 3 mM destroying agent first, 3.3 mM cysteamine): 0%; Polymerase activity after second incubation with cysteine (% of control) (human plasma polymerase [2]; 3 mM destroying agent first, 3.3 mM cysteine): 14%; Polymerase activity after second incubation with glutathione (% of control) (human plasma polymerase [2]; 3 mM destroying agent first, 3.3 mM glutathione): 21%; Polymerase activity after second incubation with cysteamine (% of control) (human plasma polymerase [2]; 3 mM destroying agent first, 10 mM cysteamine): 2%; Polymerase activity after second incubation with cysteine (% of control) (human plasma polymerase [2]; 3 mM destroying agent first, 10 mM cysteine): 37%; Polymerase activity after second incubation with glutathione (% of control) (human plasma polymerase [2]; 3 mM destroying agent first, 10 mM glutathione): 37%; Polymerase activity after second incubation with cysteamine (% of control) (human plasma polymerase [2]; 3 mM destroying agent first, 30 mM cysteamine): 1%; Polymerase activity after second incubation with water (% of control) (human plasma polymerase [2]; 3 mM destroying agent first, water in second incubation): 0%"
Nc1nc2c(ncn2[C@H]2CC[C@@H](COP(=O)(O)OP(=O)(O)OP(=O)(O)O)O2)c(=O)[nH]1 [ddGTP],,,,,,,,,,,,,94,93,103,109,
Cc1cn([C@H]2CC[C@@H](COP(=O)(O)OP(=O)(O)OP(=O)(O)O)O2)c(=O)[nH]c1=O [ddTTP],,,,,,,,,,,,,18,28,7,9,

# Reference: patent US20040110265A1, “Recovery of enzyme activity from enveloped viruses” (priority 2001, published 2004)
